Results on 1 molecule are retold here after US20220281779A1, “Fertiliser and/or Soil Improver Composition, Method of Preparation and Method of Use” (Veratin Pty Ltd, priority 2016, published 2022).

For the experiment, the system named is Sceptre wheat. The experiment is described as follows: Field wheat trial. The experiment is classed as in vivo. As to conditions: total N applied: nV-2 17 units, Flexi-N and Urea 59 units. The method, then:
A fertiliser and/or soil improver composition (nV-2) is prepared using a method exemplified in Example III, with a sheep wool material (uncleaned and/or containing the fat layer) being deconstructed using a eutectic melt comprising urea:choline chloride at a ratio in the range of from about 7.5:1 to about 4:1, and with the temperature for the deconstruction of wool being in a range of approximately 145-165° C. (or more specifically approximately 145-160° C.). The composition (nV-2) was also prepared at a weight to volume ratio of the wool to eutectic melt in the range of from about 1 g:1 ml to about 1 g:25 ml.
The resultant fertiliser and/or soil improver composition (nV-2) comprises 35% (w/v) of total N (nitrogen) and has pH in the range of pH 5.5-6.5. For the field application, the composition nV-2 was mixed with water (as a carrier) in a ratio of approximately 52 L water to approximately 48 L of nV-2.
The field wheat trial was established as a randomised complete block of 5 treatments and 4 replicates in a single bank with each plot 12 meter long by 2 meter wide.
The effectiveness of the fertiliser and/or soil improver composition nV-2 according to the present invention on plant growth (wheat in this instance) and/or as an organic nitrogen nutrient source, is compared with a commercial inorganic fertiliser (Flexi-N, which is a commercially available fertiliser distributed by the Australian Company CSBP and contains three forms of N—urea, ammonium and nitrate, with a total N concentration of 42%), and with Urea alone (at 46% total N). […]
At 41 and 75 days after sowing, the NDVI was recorded for each plot using a hand-held green-seeker.
At 209 days after sowing, the trial was plot harvested for yield comparisons with grain samples collected from each plot and analysed for quality (protein, moisture, specific weight and screenings) according to industry standards.
All data collected was statistically analysed with the proprietary agricultural field research program ARM® using an Analysis of Variance at a confidence limit of 95%.

For `NC(N)=O` [Urea], the “Average crop yield/Unit of N” value came to 0.133 and the “Net crop yield/unit of N” value is listed as 0.009. The same molecule gave an Average crop yield (harvest 209 days after sowing) of 7.848.
